Each compound was assayed against T1, gastrin (CCK2) receptors (Rattus norvegicus, UniProt P30553) (assay: gastrin (CCK2) antagonist activity in an immature rat stomach assay). Conditions: pentagastrin dose-response curves, acid secretion, read-out: pKB rat stomach (converted).
T1 construct: The stomach was excised and flushed with ca. 1 ml of unbuffered physiological saline solution; from tissue; host or cells: isolated whole stomach of immature rats (ca. 21 days old)
T1 sequence (P30553 1-452): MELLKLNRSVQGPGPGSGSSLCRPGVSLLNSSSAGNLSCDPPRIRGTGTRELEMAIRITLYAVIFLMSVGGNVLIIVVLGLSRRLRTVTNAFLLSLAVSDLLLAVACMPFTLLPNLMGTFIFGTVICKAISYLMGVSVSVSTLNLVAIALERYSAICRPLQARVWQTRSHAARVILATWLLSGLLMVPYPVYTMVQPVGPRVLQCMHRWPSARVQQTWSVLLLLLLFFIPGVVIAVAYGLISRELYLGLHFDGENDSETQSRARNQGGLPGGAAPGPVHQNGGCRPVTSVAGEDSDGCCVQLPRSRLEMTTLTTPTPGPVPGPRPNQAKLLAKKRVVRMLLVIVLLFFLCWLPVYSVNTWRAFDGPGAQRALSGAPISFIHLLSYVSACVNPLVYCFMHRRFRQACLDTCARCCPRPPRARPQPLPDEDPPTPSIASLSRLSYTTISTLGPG
Outline: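 Stomachs excised from immature rats (33-50 g, ca. 21 days old) were perfused at 1 ml min^−1 with unbuffered O2-gassed saline, with acid output tracked by a pH electrode. After 120 min stabilisation, drug was added to the serosal bath, followed 60 min later by cumulative pentagastrin dose-response curves.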

Kb | Structure (SMILES)
3.39 nM | CC(C)(C)C(=O)CN1C(=O)N(CC(=O)Nc2cccc(-c3ccc(C(=O)O)o3)c2)N=C(C2CCCCC2)c2ccccc21 [Example 145, 5-(3-{2-[5-Cyclohexyl-1-(3,3-dimethyl-2-oxo-butyl)-2-oxo-1,2-dihydro-3H-1,3,4-benzotriazepin-3-yl]-acetylamino}-phenyl)-furan-2-carboxylic acid]
115 nM | O=C(CN1N=C(C2CCCCC2)c2ccccc2N(CC(=O)C23CC4CC(CC(C4)C2)C3)C1=O)Nc1cccc(C(=O)O)c1 [Example 17, 3-{2-[1-(2-Adamantan-1-yl-2-oxo-ethyl)-5-cyclohexyl-2-oxo-1,2-dihydro-3H-1,3,4-benzotriazepin-3-yl]-acetylamino}-benzoic acid]
15.5 nM | CC(C)(C)C(=O)CN1C(=O)N(CC(=O)Nc2cccc3nn(CC(=O)O)cc23)N=C(C2CCCCC2)c2ccccc21 [Example 142, (4-{2-[5-Cyclohexyl-1-(3,3-dimethyl-2-oxo-butyl)-2-oxo-1,2-dihydro-3H-1,3,4-benzotriazepin-3-yl]-acetylamino}-indazol-2-yl)-acetic acid]
661 nM | CC(C)(C)C(=O)CN1C(=O)N(CC(=O)Nc2ccccn2)N=C(C2CCCCC2)c2ccccc21 [Example 63, 2-[5-Cyclohexyl-1-(3,3-dimethyl-2-oxo-butyl)-2-oxo-1,2-dihydro-3H-1,3,4-benzotriazepin-3-yl]-N-pyridin-2-yl-acetamide]
2.88 nM | O=C(CN1N=C(C2CCCCC2)c2ccccc2N(CC(=O)C2CCCC2)C1=O)Nc1cccc(-c2csc(C(=O)O)n2)c1 [Example 137, 4-(3-{2-[5-Cyclohexyl-1-(2-cyclopentyl-2-oxo-ethyl)-2-oxo-1,2-dihydro-3H-1,3,4-benzotriazepin-3-yl]-acetylamino}-phenyl)-thiazole-2-carboxylic acid]
1.17 nM | CNc1cccc(NC(=O)CN2N=C(C3CCCCC3)c3ccccc3N(CC(=O)C3CCCC3)C2=O)c1 [Example 57, 2-[5-Cyclohexyl-1-(2-cyclopentyl-2-oxo-ethyl)-2-oxo-1,2-dihydro-3H-1,3,4-benzotriazepin-3-yl]-N-(3-methylaminophenyl)-acetamide]
1.29 nM | CNc1nc(-c2cccc(NC(=O)CN3N=C(C4CCCCC4)c4ccccc4N(CC(=O)C(C)(C)C)C3=O)c2)cs1 [Example 150, 2-[5-Cyclohexyl-1-(3,3-dimethyl-2-oxo-butyl)-2-oxo-1,2-dihydro-3H-1,3,4-benzotriazepin-3-yl]-N-[3-(2-methylamino-thiazol-4-yl)-phenyl]-acetamide]
37.2 nM | CC(C)(C)C(=O)CN1C(=O)N(CC(=O)Nc2cccc(-c3csc(C(=O)O)n3)c2)N=C(C2CCCCC2)c2ccccc21 [Example 108, 4-(3-{2-[5-Cyclohexyl-1-(3,3-dimethyl-2-oxo-butyl)-2-oxo-1,2-dihydro-3H-1,3,4-benzotriazepin-3-yl]-acetylamino}-phenyl)-thiazole-2-carboxylic acid]
66.1 nM | Cc1cccc2c1C(C1CCCCC1)=NN(CC(=O)Nc1cccc(CC(=O)O)c1)C(=O)N2CC(=O)C(C)(C)C [Example 132, (3-{2-[5-Cyclohexyl-1-(3,3-dimethyl-2-oxo-butyl)-6-methyl-2-oxo-1,2-dihydro-3H-1,3,4-benzotriazepin-3-yl]-acetylamino}-phenyl)-acetic acid]
91.2 nM | CN(C)c1cccc(NC(=O)CN2N=C(C3CCCCC3)c3ccccc3N(CC(=O)C(C)(C)C)C2=O)c1 [Example 33, 2-[5-Cyclohexyl-J-(3,3-dimethyl-2-oxo-butyl)-2-oxo-1,2-dihydro-3H-1,3,4-benzotriazepin-3-yl]-N-(3-dimethylamino-phenyl)-acetamide]
6.03 nM | Cc1nc(-c2cccc(NC(=O)CN3N=C(C4CCCCC4)c4ccccc4N(CC(=O)C4CCCC4)C3=O)c2)cs1 [Example 136, 2-[5-Cyclohexyl-1-(2-cyclopentyl-2-oxo-ethyl)-2-oxo-1,2-dihydro-3H-1,3,4-benzotriazepin-3-yl]-N-[3-(2-methyl-thiazol-4-yl)-phenyl]-acetamide]
77.6 nM | CC(C)(C)C(=O)CN1C(=O)N(CC(=O)Nc2cccc(Cc3nnn[nH]3)c2)N=C(C2CCCCC2)c2ccccc21 [Example 67, 2-[5-Cyclohexyl-1-(3,3-dimethyl-2-oxo-butyl)-2-oxo-1,2-dihydro-3H-1,3,4-benzotriazepin-3-yl]-N-[3-(1H-tetrazol-5-ylmethyl)-phenyl]-acetamide]
51.3 nM | CNc1cccc(NC(=O)CN2N=C(CC(C)C)c3ccccc3N(CC(=O)C(C)(C)C)C2=O)c1 [Example 13, 2-[1-(3,3-Dimethyl-2-oxo-butyl)-5-isobutyl-2-oxo-1,2-dihydro-3H-1,3,4-benzotriazepin-3-yl]-N-(3-methylaminophenyl)-acetamide]
3.39 nM | O=C(O)Cc1cccc(NC(=O)CN2N=C(C3CCCCC3)c3ccccc3N(CC(=O)C3CCCCC3)C2=O)c1 [Example 80, (3-{2-[5-Cyclohexyl-1-(2-cyclohexyl-2-oxo-ethyl)-2-oxo-1,2-dihydro-3H-1,3,4-benzotriazepin-3-yl]-acetylamino}-phenyl)-acetic acid]
3.31 nM | Cc1nc(-c2cccc(NC(=O)CN3N=C(C4CCCCC4)c4ccccc4N(CC(=O)C(C)(C)C)C3=O)c2)cs1 [Example 107]
50.1 nM | C=C(CN1C(=O)N(CC(=O)Nc2cccc(CC(=O)O)c2)N=C(C2CCCCC2)c2ccccc21)C(C)(C)C [Example 152, (3-{2-[1-(2-tert-Butyl-allyl)-5-cyclohexyl-2-oxo-1,2-dihydro-3H-1,3,4-benzotriazepin-3-yl]-acetylamino}-phenyl)-acetic acid]
0.661 nM | CC(C)(C)C(=O)CN1C(=O)N(CC(=O)Nc2cccc(C(=O)O)c2)N=C(C2CCCCC2)c2ccccc21 [Example 2, 3-{2-[5-Cyclohexyl-1-(3,3-dimethyl-2-oxo-butyl)-2-oxo-1,2-dihydro-3H-1,3,4-benzotriazepin-3-yl]-acetylamino}-benzoic acid]
324 nM | CNc1cc(NC(=O)CN2N=C(C3CCCCC3)c3ccccc3N(CC(O)C(C)(C)C)C2=O)cc(C(=O)OC)c1 (stereo not drawn) [Example 78, 3-{2-[5-Cyclohexyl-1 (−2-hydroxy-3,3-dimethyl-butyl)-2-oxo-1,2-dihydro-3H-1,3,4-benzotriazepin-3-yl]-acetylamino}-5-methylamino-benzoic acid methyl ester]
11.5 nM | CC(C)(C)C(=O)CN1C(=O)N(CC(=O)Nc2cccc(-c3cccc(C(=O)O)c3)c2)N=C(C2CCCCC2)c2ccccc21 [Example 151, 3′-{2-[5-Cyclohexyl-1-(3,3-dimethyl-2-oxo-butyl)-2-oxo-1,2-dihydro-3H-1,3,4-benzotriazepin-3-yl]-acetylamino}-biphenyl-3-carboxylic acid]
129 nM | CC(C)(C)C(=O)CN1C(=O)N(CC(=O)Nc2cccc(CO)n2)N=C(C2CCCCC2)c2ccccc21 [Example 106, 2-[5-Cyclohexyl-1-(3,3-dimethyl-2-oxo-butyl)-2-oxo-1,2-dihydro-3H-1,3,4-benzotriazepin-3-yl]-N-(6-hydroxymethyl-pyridin-2-yl)-acetamide]

Structure (SMILES) | Kb
CC(C)(C)OC(=O)CN1C(=O)N(CC(=O)Nc2cccc(C(=O)O)c2)N=C(C2CCCCC2)c2ccccc21 [Example 95, 3-[2-(1-tert-Butoxycarbonylmethyl-5-cyclohexyl-2-oxo-1,2-dihydro-3H-1,3,4-benzotriazepin-3-yl)-acetylamino]-benzoic acid] | 3.98 nM

— patent publication US20050026911A1, “Benzotriazapinone salts and methods for using same” (priority 2003, published 2005)
